Numbered stars: 1 amine (or outer) side, 2 acyl side, 3 side chain; on linkers, the order of the positions; unused ones are H or OH. Bridge positions count the residues as written; N and C are the ends. Square brackets hold non-standard residues; d marks the D form. Peptide text beside a SMILES is read from it. * marks the point of attachment. DOTA = O=C(O)CN1CCN(CC(=O)O)CCN(CC(=O)*)CCN(CC(=O)O)CC1; TATA = O=C(CC[*:1])N1CN(C(=O)CC[*:2])CN(C(=O)CC[*:3])C1; Hyp = O=C(O)[C@@H]1C[C@@H](O)CN1; hArg = N=C(N)NCCCC[C@H](N)C(=O)O; Cba = N[C@@H](CC1CCC1)C(=O)O; βAla = NCCC(=O)O; Sar = CNCC(=O)O
Assays:
Mouse EphA2 = molecular target: T1, Mouse EphA2 (Mus musculus, UniProt Q03145); assay: SPR binding to mouse EphA2
T1 construct: Fc; purchased R&D Systems 639-A2
T1 sequence (Q03145 with tags, fused parts or gaps limits assumed): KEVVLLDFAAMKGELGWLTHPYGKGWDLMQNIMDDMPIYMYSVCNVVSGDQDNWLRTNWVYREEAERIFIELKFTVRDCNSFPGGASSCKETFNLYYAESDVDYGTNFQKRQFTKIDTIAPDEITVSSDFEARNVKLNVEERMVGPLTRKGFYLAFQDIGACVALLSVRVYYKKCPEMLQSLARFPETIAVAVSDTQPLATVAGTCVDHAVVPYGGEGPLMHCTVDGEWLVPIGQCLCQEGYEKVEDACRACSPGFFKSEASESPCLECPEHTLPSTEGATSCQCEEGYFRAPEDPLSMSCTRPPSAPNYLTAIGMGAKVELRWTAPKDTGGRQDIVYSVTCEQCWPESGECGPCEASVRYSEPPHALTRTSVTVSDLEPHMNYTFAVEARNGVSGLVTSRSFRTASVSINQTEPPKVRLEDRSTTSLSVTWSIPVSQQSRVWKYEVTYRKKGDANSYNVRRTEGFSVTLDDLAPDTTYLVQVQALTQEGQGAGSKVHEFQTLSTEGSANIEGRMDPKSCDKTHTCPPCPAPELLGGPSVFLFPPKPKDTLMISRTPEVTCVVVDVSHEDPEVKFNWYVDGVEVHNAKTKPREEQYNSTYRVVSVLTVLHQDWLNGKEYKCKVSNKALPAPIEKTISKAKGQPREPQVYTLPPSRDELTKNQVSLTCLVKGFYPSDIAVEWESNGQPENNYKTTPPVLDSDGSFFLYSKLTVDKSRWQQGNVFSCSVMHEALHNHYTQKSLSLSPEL
Experimental: (§1) The commercial source details of the recombinant proteins used in SPR were as follows: Human proteins: EphA1 (15789-H02H, Sino Biological), EphA3 (644-A3, R&D Systems), EphA6 (5606-A6, R&D Systems), EphA7 (6756-A7, R&D Systems). Mouse proteins: Mouse EphA2 was purchased from R&D Systems (Product number 639-A2). Mouse EphA2-Fc was resuspended as per manufacturer's recommendations and material was passed through a SuperdexS200 column to remove aggregates.
(§2) SPR experiments were performed on a Biacore 8K+ (Cytiva Life Sciences, USA) instrument, with methods matched for both human and mouse EphA2 protein. Protein was captured on to a Cytiva NTA sensor chip (Cytiva Life Sciences), via the expressed His-tag; this was followed by primary amine coupling chemistry to covalently immobilize the protein to the chip at 25°C. Initially the surface was injected with 0.5 mM NiCl2 for 2 minutes, followed by activation of the carboxymethyl dextran surface for 7 minutes using an injection of a 1:1 ratio of 0.4 M 1-ethyl-3-(3-dimethylaminopropyl) carbodiimide hydrochloride (EDC)/0.1 M N-hydroxy succinimide (NHS) at a flow rate of 10 µL/min.
Human EphA2 protein was captured to the Ni-NTA surface to a level of 200-300 RU and Mouse EphA2 to 500-800 RU; the residual activated groups were then blocked with a 7 minute injection of 1 M ethanolamine (pH 8.5):HBS-N (1:1). […]

Human EphA2 = molecular target: T2, Human EphA2 (Homo sapiens, UniProt P29317); assay: SPR binding to human EphA2
T2 construct: Human EphA2 (residues 27-529) was cloned into pEXPR-IBA44; made in house; host or cells: HEK293 f/s cells
T2 sequence (P29317 27-529): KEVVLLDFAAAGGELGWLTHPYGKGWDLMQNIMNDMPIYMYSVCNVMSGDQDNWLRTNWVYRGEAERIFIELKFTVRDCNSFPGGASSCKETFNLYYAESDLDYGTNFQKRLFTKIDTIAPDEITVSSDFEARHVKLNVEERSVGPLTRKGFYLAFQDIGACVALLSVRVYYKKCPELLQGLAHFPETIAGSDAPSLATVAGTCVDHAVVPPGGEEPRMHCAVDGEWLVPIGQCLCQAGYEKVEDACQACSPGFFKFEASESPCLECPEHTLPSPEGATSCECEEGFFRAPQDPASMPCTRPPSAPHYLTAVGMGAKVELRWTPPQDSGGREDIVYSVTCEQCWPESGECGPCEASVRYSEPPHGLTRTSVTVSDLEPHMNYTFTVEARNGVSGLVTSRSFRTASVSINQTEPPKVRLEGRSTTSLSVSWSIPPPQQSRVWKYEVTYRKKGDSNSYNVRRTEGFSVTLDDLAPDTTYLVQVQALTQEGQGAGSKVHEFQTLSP
Experimental: Human EphA2 (residues 27-529) was cloned into pEXPR-IBA44 between the 5' NheI and 3' BsaI sites to make constructs expressing a BM40 signal sequence and C-terminal 6xHIS tag. For the expression and purification of the protein, HEK293 f/s cells at 1 x 10^6/mL in freestyle media (Thermo Fisher) were transfected with 1 µg DNA per million cells by PEI either 2:1 or 3:1 PEI:DNA ratio. On day 2 valproic acid was added to a 2.2 mM concentration. The supernatant was harvested 5 days post transfection and loaded on a 1 ml Ni-NTA agarose resin (Thermo Fisher) (wash buffer: 20 mM HEPES pH 7.6, 0.5 M NaCl, 5 mM imidazole, 0.01% Tween-20 buffer; elution buffer: 20 mM HEPES pH 7.6, 0.5 M NaCl, 300 mM imidazole, 0.01% Tween-20). The protein was concentrated to a volume of 2 mL, loaded onto an S-200 Superdex column (GE Healthcare) and eluted with 20 mM HEPES pH 7.6, 150 mM NaCl, 0.01% Tween-20 at a flow rate of 1 mL/min. Fractions were collected and those containing human EphA2 protein were concentrated for further use.
as §2
Human EphA2 protein was captured to the Ni-NTA surface to a level of 200-300 RU and Mouse EphA2 to 500-800 RU; the residual activated groups were then blocked with a 7 minute injection of 1 M ethanolamine (pH 8.5):HBS-N (1:1). Finally, the Ni-NTA surface was chelated with a 1-minute injection of 350 mM EDTA.
Peptide was prepared in PBS/0.05% Tween 20 with a final DMSO concentration of 0.5%. The top peptide concentration was 100 or 500 nM and 5 further 3-fold dilutions. The peptide was titrated over the chip using single cycle kinetics at 25°C at a flow rate of 75 µL/min with 60 second association and 4000 second dissociation. All data were double referenced for blank injections and reference surface using standard processing procedures. Data was characterized with a 1:1 kinetic binding model to determine kinetic rate constants ka (M^-1s^-1) and kd (s^-1) and equilibrium dissociation constant KD (nM). All data processing was performed using Cytiva Insight Evaluation (Cytiva Life Sciences, USA).

Human EphA7 = molecular target: T3, Human EphA7 (Homo sapiens, UniProt Q15375); assay: SPR homologue panel, EphA7; conditions: human EphA7, n=1; read-out: KD, no binding up to
T3 construct: purchased R&D Systems 6756-A7
T3 sequence (Q15375 28-998): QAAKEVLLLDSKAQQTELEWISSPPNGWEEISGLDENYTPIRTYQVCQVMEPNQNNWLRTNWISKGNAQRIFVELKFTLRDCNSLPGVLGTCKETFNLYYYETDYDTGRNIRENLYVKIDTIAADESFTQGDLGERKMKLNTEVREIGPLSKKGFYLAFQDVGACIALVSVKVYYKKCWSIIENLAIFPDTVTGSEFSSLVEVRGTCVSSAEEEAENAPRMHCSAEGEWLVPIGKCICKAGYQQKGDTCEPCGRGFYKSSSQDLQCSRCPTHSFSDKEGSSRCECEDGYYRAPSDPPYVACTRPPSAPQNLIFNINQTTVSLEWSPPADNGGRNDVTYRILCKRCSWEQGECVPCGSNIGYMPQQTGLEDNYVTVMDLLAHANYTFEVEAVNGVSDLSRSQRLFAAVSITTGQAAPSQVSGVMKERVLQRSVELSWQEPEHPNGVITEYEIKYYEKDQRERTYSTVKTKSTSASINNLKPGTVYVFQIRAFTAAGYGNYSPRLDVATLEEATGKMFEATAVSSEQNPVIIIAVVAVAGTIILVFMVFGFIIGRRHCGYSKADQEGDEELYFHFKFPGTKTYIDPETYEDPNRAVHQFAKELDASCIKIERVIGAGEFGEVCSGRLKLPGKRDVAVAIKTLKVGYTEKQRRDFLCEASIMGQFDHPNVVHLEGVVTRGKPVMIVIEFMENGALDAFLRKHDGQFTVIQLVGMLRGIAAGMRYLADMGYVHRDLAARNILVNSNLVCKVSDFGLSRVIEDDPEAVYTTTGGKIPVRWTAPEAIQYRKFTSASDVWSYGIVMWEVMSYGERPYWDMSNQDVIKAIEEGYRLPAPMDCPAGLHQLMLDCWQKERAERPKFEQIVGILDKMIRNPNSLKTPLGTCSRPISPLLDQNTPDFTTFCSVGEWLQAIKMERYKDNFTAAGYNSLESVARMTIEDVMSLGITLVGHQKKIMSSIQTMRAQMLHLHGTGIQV
Experimental: as §1, §2
(§3) Peptide was prepared in PBS/0.05% Tween 20 with a final DMSO concentration of 0.5%. The top peptide concentration was 100 or 500 nM and 5 further 3-fold dilutions. […]

[1] = male, CD-1 (ICR), mouse, in vivo, iv, 1 mg/kg
Experimental: In vivo pharmacokinetic studies were conducted in male CD-1 (ICR) mice, 7-9 weeks of age. […] Serial venous blood samples were taken at 5 min, 15 min, 30 min, 45 min, 1 h, 2 h and 4 h post injection. Samples were immediately transferred into low-binding microcentrifuge tubes containing 2 μL K2-EDTA (0.5 M) as anti-coagulant and kept on ice until processed by centrifugation at 4°C, 3200 g for 10 min. The resulting plasma was transferred into low-binding tubes and the protein precipitated by addition of methanol containing 0.5% Triton X-100 and internal standards (100 ng/mL each of labetalol, tolbutamide, verapamil, dexamethasone, glyburide and celecoxib). Samples were centrifuged at 4°C, 12000 g for 15 min and the supernatant removed, frozen over dry ice and stored at -70°C until LC-MS/MS analysis (Supplementary Materials - Methods). A calibration curve and quality control samples were prepared in the same matrix. Pharmacokinetic parameters were derived from noncompartmental analysis using the intravenous-noncompartmental model 201 (IV bolus input) in Phoenix WinNonlin version 8.3.5 (Certara, USA).

Human EphA1 = molecular target: T4, Human EphA1 (Homo sapiens, UniProt P21709); assay: SPR homologue panel, EphA1; conditions: human EphA1, n=1; read-out: KD, no binding up to
T4 construct: purchased Sino Biological 15789-H02H
T4 sequence (P21709 26-547 limits assumed): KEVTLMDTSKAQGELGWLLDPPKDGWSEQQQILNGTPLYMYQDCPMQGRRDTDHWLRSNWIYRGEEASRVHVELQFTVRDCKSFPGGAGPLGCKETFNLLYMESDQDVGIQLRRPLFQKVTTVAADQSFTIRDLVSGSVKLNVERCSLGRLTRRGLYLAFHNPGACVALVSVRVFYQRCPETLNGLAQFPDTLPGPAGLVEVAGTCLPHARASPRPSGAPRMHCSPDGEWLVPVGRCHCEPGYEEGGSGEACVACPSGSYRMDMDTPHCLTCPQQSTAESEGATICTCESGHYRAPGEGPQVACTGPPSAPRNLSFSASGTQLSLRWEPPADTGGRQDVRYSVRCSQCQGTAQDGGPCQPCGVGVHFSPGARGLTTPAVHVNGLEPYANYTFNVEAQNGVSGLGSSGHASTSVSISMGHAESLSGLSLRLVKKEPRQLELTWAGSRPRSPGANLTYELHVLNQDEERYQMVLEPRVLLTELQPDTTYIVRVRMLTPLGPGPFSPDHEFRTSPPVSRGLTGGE
Experimental: as §1, §2, §3

Human EphA5 = Human EphA5 (Homo sapiens, UniProt P54756); assay: SPR homologue panel, EphA5; conditions: human EphA5, n=1; read-out: KD, no binding up to
Human EphA5, sequence (P54756 25-1037): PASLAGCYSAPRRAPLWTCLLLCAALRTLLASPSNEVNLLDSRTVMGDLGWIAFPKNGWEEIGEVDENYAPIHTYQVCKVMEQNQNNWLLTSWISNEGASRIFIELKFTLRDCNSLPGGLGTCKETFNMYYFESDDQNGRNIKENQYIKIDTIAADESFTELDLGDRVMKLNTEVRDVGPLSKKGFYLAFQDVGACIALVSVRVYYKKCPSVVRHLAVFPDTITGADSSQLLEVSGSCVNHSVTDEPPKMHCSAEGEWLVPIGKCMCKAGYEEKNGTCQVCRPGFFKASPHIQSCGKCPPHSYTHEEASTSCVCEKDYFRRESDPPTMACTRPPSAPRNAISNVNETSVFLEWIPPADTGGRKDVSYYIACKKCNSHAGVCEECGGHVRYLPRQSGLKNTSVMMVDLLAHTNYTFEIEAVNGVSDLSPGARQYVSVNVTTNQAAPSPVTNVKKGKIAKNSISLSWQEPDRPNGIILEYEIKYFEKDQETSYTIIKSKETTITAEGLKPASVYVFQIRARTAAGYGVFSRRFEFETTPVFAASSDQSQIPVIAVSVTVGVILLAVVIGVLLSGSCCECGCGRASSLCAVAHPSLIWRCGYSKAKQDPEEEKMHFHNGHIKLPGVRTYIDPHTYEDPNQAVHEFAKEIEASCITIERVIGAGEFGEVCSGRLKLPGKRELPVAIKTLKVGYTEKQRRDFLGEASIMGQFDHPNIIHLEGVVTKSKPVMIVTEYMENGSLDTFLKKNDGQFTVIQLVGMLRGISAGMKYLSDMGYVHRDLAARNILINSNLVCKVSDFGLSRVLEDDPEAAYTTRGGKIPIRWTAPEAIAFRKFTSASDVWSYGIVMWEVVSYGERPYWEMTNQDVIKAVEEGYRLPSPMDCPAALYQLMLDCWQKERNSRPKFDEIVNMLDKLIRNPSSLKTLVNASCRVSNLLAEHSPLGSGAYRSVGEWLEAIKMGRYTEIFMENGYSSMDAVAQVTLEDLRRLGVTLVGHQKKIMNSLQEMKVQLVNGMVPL

A Kd (Mouse EphA2; mouse EphA2, 25°C) of 3.82 ± 0.56 nM, a kon (Mouse EphA2; mouse EphA2, n=2, read-out: ka) of 419000 M⁻¹ s⁻¹ and a Kd (Human EphA2; human EphA2, 25°C, read-out: KD (SPR)) of 1.93 ± 0.35 nM were found for `CC(C)C[C@@H]1NC(=O)[C@@H]2CSCCC(=O)N3CN(CN(C3)C(=O)CCSC[C@H](NC(=O)[C@H](CC(=O)O)NC(=O)[C@H](CCCCNC(=N)N)NC(=O)[C@H](C)NC(=O)CN(C)C(=O)CN(C)C(=O)CN(C)C(=O)CN(C)C(=O)CN(C)C(=O)CN(C)C(=O)CN(C)C(=O)CN(C)C(=O)CN(C)C(=O)CN(C)C(=O)CCNC(=O)CN3CCN(CC(=O)O)CCN(CC(=O)O)CCN(CC(=O)O)CC3)C(=O)N3C[C@H](O)C[C@H]3C(=O)N[C@@H](CC3CCC3)C(=O)N[C@@H](C(C)C)C(=O)N[C@@H](CC(N)=O)C(=O)N3CCC[C@H]3C(=O)N[C@@H](CC(C)C)C(=O)N2)C(=O)CCSC[C@@H](C(N)=O)NC(=O)[C@H](CCCCNC(=N)N)NC(=O)[C@H](Cc2c[nH]c3ccccc23)NC(=O)[C@@H](CC(=O)O)NC(=O)[C@@H]2CCCN2C(=O)[C@H](Cc2c[nH]cn2)NC1=O` [BCY18469, [-DOTA]-[B-Ala]-[Sar10]-Ala-[HArg]-Asp-Cys-[HyP]-[Cba]-Val-Asn-Pro-Leu-Cys-Leu-His-Pro-[dAsp]-Trp-[HArg]-Cys-CONH2] ({DOTA-βAla}-[Sar][Sar][Sar][Sar][Sar][Sar][Sar][Sar][Sar][Sar]A[hArg]DC[Hyp][Cba]VNPLCLHP[dD]W[hArg]C-NH2; linker 14-21-28 via TATA) in this work. The kon (Human EphA2; human EphA2, n=2, read-out: ka) was 1.82e+06 M⁻¹ s⁻¹, the Kd (Human EphA7) was > 5000 nM and the CLp [1] was 24 mL/min/kg. The Kd (Human EphA1) was > 5000 nM and the Kd (Human EphA5) was > 5000 nM.

Reference: PMC11373624, “Development and preclinical characterization of a novel radiotheranostic EphA2-targeting bicyclic peptide” (Theranostics, 2024)
